# Assay results: patent publication US9328369B2, “Process for production of useful substance, and surfactant for use in the process” (priority 2009, dated 2016)
# System: Escherichia coli(ε)
# Assay: Production by secretion in microbial culture system, protease expressing strain (Table 5)
# Format: cell-based
# Details: Example 12, surfactant 1 wt %
# From the text: A subtilisin Carlsberg gene of a Bacillus licheniformis was amplified by the PCR method using primers 7 and 8 (Table 4). After being treated with restriction enzymes NcoI and BamHI, a PCR amplified fragment was bound to an NcoI restriction enzyme site and a BamHI restriction enzyme site of a pET-22b plasmid (product of Novagen). Then, the plasmid was transformed into a BL21 (DE3) Escherichia coli strain (product of Novagen) to form Escherichia coli (ε) that expresses protease.
# Overnight cultures (1 ml) of Escherichia coli (δ) obtained in Production Example 4 and Escherichia coli (ε) obtained in Production Example 5 were respectively prepared as Comparative Example 2 and Comparative Example 4. An amount of 0.5 ml of each was inoculated in 5 ml of an LB culture solution (containing 100 mg/L of ampicillin) and was shake-cultured at 30° C. for 3 hours. In this manner, pre-culture solutions were prepared. […] The whole protein in the culture solution was analyzed by SDS-PAGE. Based on the obtained amount of the protein band, the recombinant protein was quantified.
# Performance of this processes for several times clarified the proportional relationship between the turbidity of the culture solution and the dried cell density. Therefore, the dried cell density was obtained from the measured turbidity in each of Comparative Examples 2 to 4 and Examples 2 to 14. […]
substance,measurement,setting,value
Cured palm oil fatty acid amidopropyl dimethyl aminoacetate betaine [A-6],Turbidity,,95
same,Dried cell density,obtained from turbidity,26.6 g/L
same,Quantitative value of produced recombinant protein,"supernatant, SDS-PAGE",0.37 g/L
